Where two headings read alike, the source gives them in different places.

Among the data in patent publication US20250332266A1, “COMPOUNDS FOR THE DEGRADATION OF EGFR KINASE” (BeiGene Switzerland GmbH, priority 2022, published 2025) are ring closure, isolated yield, DC50 and Dmax values, retold here.

For data set [1] the following is noted: amide bond, 15-membered ring, 25.0 °C.
A further data set concerns the target T1, EGFR L858R (BaF3-L858R) (Homo sapiens, UniProt P00533, L858R).
T1 construct: host or cells: BaF3
The experiment in a line: EGFR degradation, HTRF total-EGFR assay, BaF3-L858R cells. Conditions: 16 h treatment. Type of data set: cell-based. On the procedure:
BaF3-L858R (abbv. L858R) cell were purchased from Kangyuan Bochuang Biotechnology (Beijing) Co., Ltd.
(§1) H1975-#8 and BaF3-L858R cells are treated with compounds diluted in 0.1% DMSO cell culture medium on day 2, incubate for 16 h, 37° C., 5% CO2. the final concentration of compounds in all assay starts with 10 uM, 5-fold dilution, total 8 doses were included.
(§2) Total-EGFR cellular kit (64NG1PEH) were used for evaluating EGFR degradation.
(§3) After 16 h treatment, for H1975-#8 cells, add 100 μL HTRF 1× lysis buffer to each well; for BaF3-L858R cells, add 20 μL 4× lysis buffer to each well; seal the plate and incubate 1 hour at room temperature on a plate shaker; Once the cells are lysed, 16 μL of cell lysate are transferred to a PE 384-well HTRF detection plate; 4 μL of pre-mixed HTRF antibodies are added to each well; cover the plate with a plate sealer, spin 1000 rpm for 1 min, incubate overnight at room temperature; read on BMG PheraStar with HTRF protocol (337 nm-665 nm-620 nm).
(§4) The inhibition (degradation) percentage of the compound was calculated by the following equation:
(§5) Inhibition percentage of Compound=100−100×(Signal−low control)/(High control−low control), wherein signal=each test compound group
(§6) High control=Cell group with added DMSO and without compound, indicating microplate readings without EGFR degradation.
(§7) Imax (Dmax) is the maximum percentage of inhibition (degradation).
(§8) The IC50 (DC50) value of a compound can be obtained by fitting the following equation
(§9) Wherein, X and Y are known values, and IC50, Hillslope, Top and Bottom are the parameters obtained by fitting with software. Y is the inhibition percentage (calculated from the equation), X is the concentration of the compound; IC50 is the concentration of the compound when the 50% inhibition is reached. The smaller the IC50 value is, the stronger the inhibitory ability of the compound is. Vice versa, the higher the IC50 value is, the weaker the ability the inhibitory ability of the compound is; Hillslope represents the slope of the fitted curve, generally around 1*; Bottom represents the minimum value of the curve obtained by data fitting, which is generally 0%±20%; Top represents the maximum value of the curve obtained by data fitting, which is generally 100%±20%. The experimental data were fitted by calculating and analyzing with Dotmatics data analysis software.
A general note: In TR-FRET formats the signal depends on donor and acceptor labels being close together.

The target in data set [2] is T2, EGFR L858R/C797S (H1975-clone #8) (Homo sapiens, UniProt P00533, C797S/L858R).
T2 construct: expressed in transfected cells; host or cells: H1975 (clone #8), lentiviral transduction, endogenous EGFR knocked out
T2 sequence (P00533 25-1210 C797S/L858R): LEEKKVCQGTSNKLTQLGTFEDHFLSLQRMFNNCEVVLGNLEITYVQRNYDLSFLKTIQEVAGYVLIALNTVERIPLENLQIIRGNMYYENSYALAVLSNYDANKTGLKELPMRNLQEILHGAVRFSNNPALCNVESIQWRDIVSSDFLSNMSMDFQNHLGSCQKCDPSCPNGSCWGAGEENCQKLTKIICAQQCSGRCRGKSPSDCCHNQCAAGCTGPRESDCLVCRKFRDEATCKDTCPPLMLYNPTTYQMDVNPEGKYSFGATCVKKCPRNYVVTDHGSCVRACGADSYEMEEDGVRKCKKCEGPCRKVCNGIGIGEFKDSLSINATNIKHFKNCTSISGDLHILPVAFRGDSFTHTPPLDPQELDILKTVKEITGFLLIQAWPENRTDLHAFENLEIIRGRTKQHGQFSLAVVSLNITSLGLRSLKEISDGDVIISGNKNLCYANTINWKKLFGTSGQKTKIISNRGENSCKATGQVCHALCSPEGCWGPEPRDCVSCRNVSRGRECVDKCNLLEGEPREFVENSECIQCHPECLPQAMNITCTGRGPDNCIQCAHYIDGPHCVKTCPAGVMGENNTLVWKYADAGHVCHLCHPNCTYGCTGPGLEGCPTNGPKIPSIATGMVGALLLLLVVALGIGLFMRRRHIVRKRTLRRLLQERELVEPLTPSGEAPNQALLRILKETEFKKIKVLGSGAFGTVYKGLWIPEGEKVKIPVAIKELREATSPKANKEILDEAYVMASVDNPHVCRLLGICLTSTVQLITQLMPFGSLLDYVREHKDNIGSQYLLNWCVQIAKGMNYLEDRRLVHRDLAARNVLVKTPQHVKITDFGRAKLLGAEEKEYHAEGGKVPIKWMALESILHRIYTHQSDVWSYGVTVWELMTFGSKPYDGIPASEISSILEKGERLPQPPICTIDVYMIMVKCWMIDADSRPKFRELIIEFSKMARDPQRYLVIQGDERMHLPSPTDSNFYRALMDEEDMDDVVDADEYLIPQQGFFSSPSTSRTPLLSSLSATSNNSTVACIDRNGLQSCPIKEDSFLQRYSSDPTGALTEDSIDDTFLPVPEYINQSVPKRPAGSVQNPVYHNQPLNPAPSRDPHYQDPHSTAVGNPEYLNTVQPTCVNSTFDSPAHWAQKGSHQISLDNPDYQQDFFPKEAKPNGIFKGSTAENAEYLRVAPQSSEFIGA
As to the kind of experiment: EGFR degradation, HTRF total-EGFR assay, H1975-clone #8 (L858R/C797S). The class given is cell-based. To be noted: 16 h treatment. How it is done:
H1975-clone #8 (L858R/C797S): EGFR-L858R/C797S were stably expressed in H1975 cell lines by lentivirus-mediated over-expression, respectively. The EGFR over-expressed cells then underwent knockout, in which the EGFR targeting sgRNA was designed to only target the endogenous EGFR copies and preserve the exogenous EGFR copies. Followed by the knockout, the edited H1975 cells were seeded in 96 well plates at the concentration of 1 cell/well, cultured for about 2 weeks to allow single clones formation. The formed clones were screened by DNA sequencing and whole exon sequencing analysis for the desired edition. H1975-clone #8 were finally confirmed as homozygous L858R/C797S EGFR clones.
as §1, §2, §3, §4, §5, §6, §7, §8, §9

T1 sequence (P00533 25-1210 L858R): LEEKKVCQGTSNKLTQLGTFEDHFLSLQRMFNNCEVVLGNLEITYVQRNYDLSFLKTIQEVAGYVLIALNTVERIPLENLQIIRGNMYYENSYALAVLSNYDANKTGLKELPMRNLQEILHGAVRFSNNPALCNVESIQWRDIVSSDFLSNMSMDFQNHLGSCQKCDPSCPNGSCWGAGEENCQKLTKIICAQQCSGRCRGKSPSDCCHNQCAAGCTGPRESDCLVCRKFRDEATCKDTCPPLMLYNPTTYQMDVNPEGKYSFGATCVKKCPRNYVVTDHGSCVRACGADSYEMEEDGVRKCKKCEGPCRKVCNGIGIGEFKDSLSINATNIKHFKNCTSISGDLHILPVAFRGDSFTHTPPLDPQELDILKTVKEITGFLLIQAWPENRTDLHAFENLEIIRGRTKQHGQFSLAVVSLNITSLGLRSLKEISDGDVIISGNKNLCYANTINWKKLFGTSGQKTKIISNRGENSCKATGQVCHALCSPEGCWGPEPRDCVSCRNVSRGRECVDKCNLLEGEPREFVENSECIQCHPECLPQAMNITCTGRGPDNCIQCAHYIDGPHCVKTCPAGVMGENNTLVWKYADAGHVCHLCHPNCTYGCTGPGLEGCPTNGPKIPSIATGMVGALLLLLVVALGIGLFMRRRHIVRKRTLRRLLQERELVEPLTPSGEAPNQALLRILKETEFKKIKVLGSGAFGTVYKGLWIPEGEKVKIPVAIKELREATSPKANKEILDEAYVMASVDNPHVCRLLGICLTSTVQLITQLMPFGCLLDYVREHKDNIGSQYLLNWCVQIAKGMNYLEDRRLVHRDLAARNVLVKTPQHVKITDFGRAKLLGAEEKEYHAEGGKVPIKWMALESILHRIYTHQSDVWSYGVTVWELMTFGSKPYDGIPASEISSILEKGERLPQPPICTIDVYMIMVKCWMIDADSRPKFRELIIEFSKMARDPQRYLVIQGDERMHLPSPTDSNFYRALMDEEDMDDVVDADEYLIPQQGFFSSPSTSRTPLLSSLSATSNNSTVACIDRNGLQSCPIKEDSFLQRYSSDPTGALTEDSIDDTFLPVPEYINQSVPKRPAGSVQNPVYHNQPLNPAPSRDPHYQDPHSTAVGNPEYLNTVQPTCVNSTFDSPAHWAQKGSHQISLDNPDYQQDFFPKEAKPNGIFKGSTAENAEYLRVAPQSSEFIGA

The compound `COC(=O)c1cc(C)nc(-c2cnn(C)c2OCC2CC(Cn3c(=N)[nH]c4ccc(Br)cc43)C2)c1` (stereo not drawn) had a ring closure, isolated yield in data set [1] (the molecule shown is the open-chain precursor, LiHMDS, THF, 116.0 mM) of 74.7%.

Turning to `Cc1cc2cc(n1)-c1cnn(C)c1OCC1CC(C1)Cn1c(nc3ccc(N4CCN(C(=O)OC(C)(C)C)CC4=O)cc31)NC2=O`, the ring closure, isolated yield in data set [1] (from Cc1cc(C(=O)O)cc(-c2cnn(C)c2OCC2CC(Cn3c(N)nc4ccc(N5CCN(C(=O)OC(C)(C)C)CC5=O)cc43)C2)n1, HATU/DIEA, DCM, 34.0 mM) worked out at 51.6%.

What is called DC50 is the midpoint of the concentration-degradation curve. Read a low DC50 as a more potent degrader. As a reminder, the Dmax is the greatest extent of degradation seen. A high value points to deep degradation. On EGFR L858R (BaF3-L858R), `Cc1cc2cc(n1)-c1cnn(C)c1OC[C@H]1C[C@@H](CN3/C(=N/C2=O)Nc2ccc(N4C[C@H](C)N(C5CCN(c6ccc(C7CCC(=O)NC7=O)nc6C)CC5)C[C@@H]4C)cc23)C1` (stereo partly drawn) [Example 139, 3-(5-(4-((2S,5S)-4-((7^1s,7^3R,E)-1^1,2^6-dimethyl-3-oxo-5^2,5^3-dihydro-1^1H,5^1H-9-oxa-4-aza-5(2,1)-benzo[d]imidazola-2(2,4)-pyridina-1(4,5)-pyrazola-7(1,3)-cyclobutanacyclononaphane-5^6-yl)-2,5-dimethylpiperazin-1-yl)piperidin-1-yl)-6-methylpyridin-2-yl)piperidine-2,6-dione] registered a DC50 of 30.7 nM and a Dmax of 88.9%.

`Cc1cc2cc(n1)-c1cnn(C)c1OC[C@H]1C[C@@H](CN3/C(=N/C2=O)Nc2ccc(N4CCN(C5CN(CCc6c(C)cc(C7CCC(=O)NC7=O)nc6C)C5)CC4)cc23)C1` (stereo partly drawn) [Example 150, 3-(5-(2-(3-(4-((7^1s,7^3s,E)-1^1,2^6-dimethyl-3-oxo-5^2,5^3-dihydro-1^1H,5^1H-9-oxa-4-aza-5(2,1)-benzo[d]imidazola-2(2,4)-pyridina-1(4,5)-pyrazola-7(1,3)-cyclobutanacyclononaphane-5^6-yl)piperazin-1-yl)azetidin-1-yl)ethyl)-4,6-dimethylpyridin-2-yl)piperidine-2,6-dione]: at EGFR L858R (BaF3-L858R), it took 11.9 nM to reach half-maximal degradation (DC50) and the greatest degradation seen (Dmax) was 73.5%. Further, in data set [2], half-maximal degradation (DC50) was put at 3.5 nM and the maximal degradation (Dmax) came to 51.9%.

At EGFR L858R (BaF3-L858R), `Cc1cc2cc(n1)-c1cnn(C)c1OC[C@H]1C[C@@H](CN3/C(=N/C2=O)Nc2ccc(N4CCN(C5CCN(c6cc(F)c(C7CCC(=O)NC7=O)nc6C)CC5)CC4)cc23)C1` (stereo partly drawn) [Example 142, 3-(5-(4-(4-((7^1s,7^3s,E)-1^1,2^6-dimethyl-3-oxo-5^2,5^3-dihydro-1^1H,5^1H-9-oxa-4-aza-5(2,1)-benzo[d]imidazola-2(2,4)-pyridina-1(4,5)-pyrazola-7(1,3)-cyclobutanacyclononaphane-5^6-yl)piperazin-1-yl)piperidin-1-yl)-3-fluoro-6-methylpyridin-2-yl)piperidine-2,6-dione] gave a DC50 of 52.3 nM and a Dmax of 76.2%.

Consider `Cc1cc(C(=O)O)cc(-c2cnn(C)c2OCC2CC(Cn3c(=N)[nH]c4ccc(CN5CCN(C(=O)OC(C)(C)C)CC5)cc43)C2)n1` (stereo not drawn), for which, in data set [1] (the molecule shown is the open-chain precursor, HATU/DIEA, DMF, 70.0 mM), the ring closure, isolated yield worked out at 50.1%.

Regarding `Cc1cc2cc(n1)-c1cnn(C)c1OC[C@H]1C[C@@H](CN3/C(=N/C2=O)Nc2ccc(N4CCN(C5CCN(c6c(C)cc(C7CCC(=O)NC7=O)nc6C)CC5)CC4)cc23)C1` (stereo partly drawn) [Example 141, 3-(5-(4-(4-((7^1s,7^3s,E)-1^1,2^6-dimethyl-3-oxo-5^2,5^3-dihydro-1^1H,5^1H-9-oxa-4-aza-5(2,1)-benzo[d]imidazola-2(2,4)-pyridina-1(4,5)-pyrazola-7(1,3)-cyclobutanacyclononaphane-5^6-yl)piperazin-1-yl)piperidin-1-yl)-4,6-dimethylpyridin-2-yl)piperidine-2,6-dione], at EGFR L858R (BaF3-L858R), it took 11.9 nM to reach half-maximal degradation (DC50) and the Dmax amounted to 85.1%. Besides, in data set [2], the DC50 was found to be 0.7 nM and the greatest degradation seen (Dmax) was 40.4%.

On EGFR L858R (BaF3-L858R), `CCc1nc(C2CCC(=O)NC2=O)ccc1N1CCC(N2CCN(c3ccc4c(c3)N3C[C@H]5C[C@@H](COc6c(cnn6C)-c6cc(cc(C)n6)C(=O)/N=C/3N4)C5)CC2)CC1` (stereo partly drawn) [Example 140, 3-(5-(4-(4-((7^1s,7^3s,E)-1^1,2^6-dimethyl-3-oxo-5^2,5^3-dihydro-1H,5^1H-9-oxa-4-aza-5(2,1)-benzo[d]imidazola-2(2,4)-pyridina-1(4,5)-pyrazola-7(1,3)-cyclobutanacyclononaphane-5^6-yl)piperazin-1-yl)piperidin-1-yl)-6-ethylpyridin-2-yl)piperidine-2,6-dione] had a DC50 of 37.8 nM and a Dmax of 90.6%.

Turning to `CCc1nc(C2CCC(=O)NC2=O)ccc1N1CCC(N2CC(N3CCN(c4ccc5c(c4)N4C[C@H]6C[C@@H](COc7c(cnn7C)-c7cc(cc(C)n7)C(=O)/N=C/4N5)C6)CC3)C2)CC1` (stereo partly drawn) [Example 149, 3-(5-(4-(3-(4-((7^1s,7^3s,E)-1^1,2^6-dimethyl-3-oxo-5^2,5^3-dihydro-1^1H,5^1H-9-oxa-4-aza-5(2,1)-benzo[d]imidazola-2(2,4)-pyridina-1(4,5)-pyrazola-7(1,3)-cyclobutanacyclononaphane-5^6-yl)piperazin-1-yl)azetidin-1-yl)piperidin-1-yl)-6-ethylpyridin-2-yl)piperidine-2,6-dione], on EGFR L858R (BaF3-L858R), the DC50 is 16 nM and the Dmax is 71.1%. In data set [2], the DC50 is 3.3 nM and the maximal degradation (Dmax) is 52.2%.
